Measured values taken from PMC8209656 (The Journal of endocrinology, 2010).

Tests used:
Assay in all cases: ethoxyresorufin-O-deethylase fluorescence, recombinant membranes
Format in all cases: biochemical
Details in all cases: 30 °C; human CPR co-expressed
CYP1C2 = target: T1, CYP1C2 (Danio rerio, UniProt A0AC58HLV5)
T1 sequence (A0AC58HLV5 1-514): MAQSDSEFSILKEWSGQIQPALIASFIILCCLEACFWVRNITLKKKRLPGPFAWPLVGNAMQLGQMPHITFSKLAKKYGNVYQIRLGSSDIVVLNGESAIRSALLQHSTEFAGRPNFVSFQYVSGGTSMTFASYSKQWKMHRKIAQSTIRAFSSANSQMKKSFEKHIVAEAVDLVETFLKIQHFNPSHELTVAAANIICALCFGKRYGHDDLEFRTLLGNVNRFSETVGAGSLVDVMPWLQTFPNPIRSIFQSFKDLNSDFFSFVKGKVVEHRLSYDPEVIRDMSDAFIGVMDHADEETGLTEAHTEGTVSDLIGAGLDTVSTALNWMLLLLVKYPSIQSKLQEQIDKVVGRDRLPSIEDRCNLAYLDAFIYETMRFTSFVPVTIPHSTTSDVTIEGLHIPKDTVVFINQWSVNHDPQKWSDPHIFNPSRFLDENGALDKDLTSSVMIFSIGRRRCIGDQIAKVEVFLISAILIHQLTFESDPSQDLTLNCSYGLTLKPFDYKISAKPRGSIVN

CYP1B1 = target: T2, CYP1B1 (Danio rerio, UniProt Q1JQ70)
T2 sequence (Q1JQ70 1-526): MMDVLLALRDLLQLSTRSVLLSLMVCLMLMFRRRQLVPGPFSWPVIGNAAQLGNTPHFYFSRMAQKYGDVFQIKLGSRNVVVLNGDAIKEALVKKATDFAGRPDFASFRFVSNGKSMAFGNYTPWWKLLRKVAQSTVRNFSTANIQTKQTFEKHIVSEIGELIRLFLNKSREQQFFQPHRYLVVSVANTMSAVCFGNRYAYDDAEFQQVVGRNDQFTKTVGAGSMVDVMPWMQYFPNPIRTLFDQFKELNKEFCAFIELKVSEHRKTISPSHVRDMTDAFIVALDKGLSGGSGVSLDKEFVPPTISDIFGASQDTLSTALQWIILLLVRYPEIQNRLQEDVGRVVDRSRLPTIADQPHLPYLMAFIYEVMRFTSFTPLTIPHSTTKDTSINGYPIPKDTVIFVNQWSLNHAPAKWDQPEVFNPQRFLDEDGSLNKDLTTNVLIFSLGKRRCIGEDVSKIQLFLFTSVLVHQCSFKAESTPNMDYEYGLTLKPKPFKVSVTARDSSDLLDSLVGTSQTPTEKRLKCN

CYP1C1 = target: T3, CYP1C1 (Danio rerio, UniProt A0A8M1N631)
T3 sequence (A0A8M1N631 13-523): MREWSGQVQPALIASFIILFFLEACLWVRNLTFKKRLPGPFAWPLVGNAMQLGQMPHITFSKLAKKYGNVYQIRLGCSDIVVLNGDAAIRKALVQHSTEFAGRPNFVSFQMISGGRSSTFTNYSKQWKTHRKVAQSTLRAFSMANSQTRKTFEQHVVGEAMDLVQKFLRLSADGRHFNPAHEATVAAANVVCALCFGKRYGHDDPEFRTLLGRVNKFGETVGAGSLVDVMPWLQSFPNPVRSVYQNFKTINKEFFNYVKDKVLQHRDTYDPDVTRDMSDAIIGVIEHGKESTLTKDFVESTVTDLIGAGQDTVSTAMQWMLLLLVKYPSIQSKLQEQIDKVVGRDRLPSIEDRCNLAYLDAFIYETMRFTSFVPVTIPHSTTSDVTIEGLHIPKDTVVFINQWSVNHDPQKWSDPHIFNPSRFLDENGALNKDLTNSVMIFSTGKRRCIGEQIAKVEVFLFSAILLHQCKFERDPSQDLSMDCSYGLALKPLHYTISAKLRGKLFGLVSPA

Compound: CCOc1ccc2nc3ccc(=O)cc-3oc2c1 [7-ethoxyresorufin]
- ethoxyresorufin-O-deethylase fluorescence, recombinant membranes (CYP1C2): All CYP1s showed catalytic activity for 7-ER and BFC except for CYP1D1 and CYP3A65
- ethoxyresorufin-O-deethylase fluorescence, recombinant membranes (CYP1B1): All CYP1s showed catalytic activity for 7-ER and BFC except for CYP1D1 and CYP3A65
- ethoxyresorufin-O-deethylase fluorescence, recombinant membranes (CYP1C1): All CYP1s showed catalytic activity for 7-ER and BFC except for CYP1D1 and CYP3A65
